Read-outs that look alike come from different tables or passages of the source.

The test system of assay [1] is obese subjects genotyped for the dopamine D2 receptor gene (DRD2). The experiment in a line: Chromium picolinate body composition response as a function of DRD2 Taq1 A1 genotype. The format is in vivo, human. The text has this:
In order to resolve the issue of non-responders, the inventor decided to test the hypothesis that typing the obese patients by genotyping the DRD2 gene prior to treatment with CrP would result in a differential treatment outcome. […] One of us (KB) predicted carriers of the DRD2 A2 allele would retain the positive metabolic effects of P, but in contrast the DRD2 A1 carriers, because there is a proclivity to increased carbohydrate binging, would possibly mask the metabolic effects of CrP on weight loss and change in body fat attenuating any positive effects. One prophetic example as described earlier (see page 48):
The inventor genotyped 130 obese subjects for the dopamine D2 receptor gene (DRD2) utilizing standard PCR techniques. The subjects were assessed for scale weight and for percent body fat using dual energy X-ray absorptiometry (DEXAR). The subjects were divided into matched placebo and chromium picolinate (CrP) groups (400μg. per day). The sample was separated into two independent groups; those with either an A1/A1 or A1/A2 allele and those with only the A2/A2 allelic pattern. Each of these groups was tested separately for differences between placebo and treatment means for a variety of measures of weight change. These measures consisted of calculations of the percent of fat weight change; the change in fat weight; the change in body weight; the change in free mass, the percent change of fat weight; the body composition index; and the body weight change in kilograms.

For assay [2], the system named is patients following weight reduction. The conditions noted are these: after six months; cited from earlier work.
The test system of assay [3] is over-eating patients. To be noted: 200 and 400 mcg, compared with placebo; cited from earlier work.
Assay [4] deals with over-eating patients. To be noted: 400 mcg vs placebo, cited from earlier work.
The test system of assay [5] is obese subjects genotyped for the dopamine D2 receptor gene (DRD2). The conditions noted are these: 400 mcg of CrP/day, cited from earlier work.
A further assay has as its system young obese women. To be noted: cited from earlier work.

As to Chromium Picolinate, in assay [1] (A2/A2, p<0.012), the “body weight change in kilograms, treatment vs placebo” value is listed as “significant”. The “change in fat weight, treatment vs placebo” value in assay [1] (A2/A2, p<0.041) is listed as “significant”. The “percent change in weight, treatment vs placebo” value in assay [1] (A2/A2, p<0.044) was “significant”. Also, the “responsiveness to the effects of CrP” value in assay [1] (DRD2 A2 allele carriers versus DRD2 A1 allele carriers, 400 ug per day) was “more responsive”. Moreover, in assay [1] (subjects possessing a DRD2 A1 allele), the “any parameter of weight change, treatment vs placebo” value was “no significance”. For the same substance, the “non-fat related weight loss” value in assay [2] is “lean body mass and avoided non-fat related weight”. Further, the “changes in Body Mass composition indicies” value with over-eating patients [3] was 200 and 400 mcg of CrP brought about significant. Also, in the assay on over-eating patients [4] (p < 0.001), the “reduction in body fat” value is on record as “greater reduction in body fat (p < 0.001), significantly” and the weight lost entry is on record as “group, 400 mcg CrP group lost significantly more”. Further, in the assay on over-eating patients [4] (p < 0.004), the body composition result was “improve body composition (p < 0.004)” and the body fat lost result is reported as “group, 400 mcg CrP group lost significantly more”. Further, the “changes in fat weight, body weight, percent change in weight, body weight changes in kgms” value in assay [5] (A1/A2 and A1/A1 carriers, listed as CrP) is “non-”. Besides, the “changes in fat weight, body weight, percent change in weight, body weight changes in kgms” value in assay [5] (A2/A2 group) is “changes in kgms were all significant in A2/A2 group,”. Moreover, in the assay with young obese women (CrP supplementation alone, 43 pts, 63 days), the weight gain result is on record as “CrP supplementation resulted in significant weight”. In the assay with young obese women (exercise training combined with CrP supplementation), the weight loss result is given as “supplementation resulted in significant weight loss”.

Values taken from patent US6955873B1, “Diagnosis and treatment system for reward deficiency syndrome (RDS) and related behaviors” (priority 1999, dated 2005).
